Read-outs that look alike come from different tables or passages of the source.
How the values were obtained:
HT29 = experiment: cells; type: cell-based; conditions: for IC50: Homo sapiens, HT-29, 2 h
H460 = experiment: cells; type: cell-based; conditions: for IC50: Homo sapiens, NCI-H460, 2 h

SMILES | IC50 (HT29; read-out: 2 hr Air HT29 IC50) [µM] | IC50 (HT29; read-out: 2 hr N2 HT29 IC50) [µM] | H460 HCR: Air/N2 (H460) | IC50 (H460; read-out: 2 hr Air H460 IC50) [µM] | IC50 (H460; read-out: 2 hr N2 H460 IC50) [µM] | HT29 HCR: Air/N2 (HT29)
O=[N+]([O-])c1sccc1C(CCS(=O)(=O)c1ccncc1)S(=O)(=O)Oc1ccc(N(CCCl)CCCl)cc1 (stereo not shown) [TH-1363] | > 1000 | > 1000 | 113 | 68 | 0.6 | –
CC(=O)Nc1ccncc1CC(c1ccsc1[N+](=O)[O-])S(=O)(=O)Oc1ccc(N(CCCl)CCCl)cc1 (stereo not shown) [TH-1364] | 350 | 13 | 36 | 64 | 1.8 | 27
Cn1ccnc1CC(c1ccsc1[N+](=O)[O-])S(=O)(=O)Oc1ccc(N(CCCl)CCCl)cc1 (stereo not shown) [TH-1366] | 180 | 13 | 40 | 20 | 0.5 | 14
O=[N+]([O-])c1sccc1C(CCS(=O)(=O)c1ccc(C(F)(F)F)cn1)S(=O)(=O)Oc1ccc(N(CCCl)CCCl)cc1 (stereo not shown) [TH-1369] | > 1000 | > 1000 | 131 | 236 | 1.8 | –
Nc1ncccc1CC(c1ccsc1[N+](=O)[O-])S(=O)(=O)Oc1ccc(N(CCCl)CCCl)cc1.O=C(O)C(F)(F)F (stereo not shown) [TH-1374] | 630 | 28 | 73 | 145 | 2 | 23
CC(=O)Nc1ncccc1CC(c1ccsc1[N+](=O)[O-])S(=O)(=O)Oc1ccc(N(CCCl)CCCl)cc1 (stereo not shown) [TH-1375] | 280 | 17 | 93 | 28 | 0.3 | 16
CC(=O)Nc1cc(CC(c2ccsc2[N+](=O)[O-])S(=O)(=O)Oc2ccc(N(CCCl)CCCl)cc2)ccn1 (stereo not shown) [TH-1376] | 540 | 52 | 236 | 212 | 0.9 | 10
O=C(CO)Nc1ncccc1CC(c1ccsc1[N+](=O)[O-])S(=O)(=O)Oc1ccc(N(CCCl)CCCl)cc1 (stereo not shown) [TH-1384] | 275 | 17 | 30 | 64 | 2.1 | 16
O=[N+]([O-])c1sccc1C(CCS(=O)(=O)CCO)S(=O)(=O)Oc1ccc(N(CCCl)CCCl)cc1 (stereo not shown) [TH-1388] | 420 | 14 | 35 | 49 | 1.4 | 30
O=[N+]([O-])c1sccc1C(Cc1cnc(O)c(Cl)c1)S(=O)(=O)Oc1ccc(N(CCCl)CCCl)cc1 (stereo not shown) [TH-1393] | 710 | 110 | 89 | 151 | 1.7 | –
O=C(CO)Nc1ccc(CC(c2ccsc2[N+](=O)[O-])S(=O)(=O)Oc2ccc(N(CCCl)CCCl)cc2)cc1 (stereo not shown) [TH-1400] | 170 | 80 | 54.3 | 76 | 1.4 | 2.1
Nc1cccc(OS(=O)(=O)CCC(c2ccsc2[N+](=O)[O-])S(=O)(=O)Oc2ccc(N(CCCl)CCCl)cc2)c1 (stereo not shown) [TH-1402] | > 1000 | > 1000 | 93.3 | 140 | 1.5 | –
O=C(CO)Nc1cccc(OS(=O)(=O)CCC(c2ccsc2[N+](=O)[O-])S(=O)(=O)Oc2ccc(N(CCCl)CCCl)cc2)c1 (stereo not shown) [TH-1414] | 740 | 100 | 54 | 135 | 2.5 | 7
O=[N+]([O-])c1sccc1C(Cc1nccs1)S(=O)(=O)Oc1ccc(N(CCCl)CCCl)cc1 (stereo not shown) [TH-1419] | > 300 | > 300 | 45 | 36 | 0.8 | –
O=[N+]([O-])c1sccc1C(Cc1cnc(OCCO)c(Cl)c1)S(=O)(=O)Oc1ccc(N(CCCl)CCCl)cc1 (stereo not shown) [TH-1420] | > 300 | > 300 | 62 | 80 | 1.3 | –
CCCN(CCCl)c1ccc(OS(=O)(=O)C(Cc2ncco2)c2ccsc2[N+](=O)[O-])cc1 (stereo not shown) [TH-1422] | > 300 | 90 | 88 | 35 | 0.4 | >3.3
O=[N+]([O-])c1sccc1C(Cc1ccc(C(F)(F)F)nc1)S(=O)(=O)Oc1ccc(N(CCCl)CCCl)cc1 (stereo not shown) [TH-1423] | > 300 | > 300 | 750 | 300 | 0.4 | –
O=[N+]([O-])c1sccc1C(Cc1ccc(N2CCOCC2)nc1)S(=O)(=O)Oc1ccc(N(CCCl)CCCl)cc1 (stereo not shown) [TH-1426] | > 300 | > 300 | 950 | 190 | 0.2 | –
O=[N+]([O-])c1sccc1C(Cc1ccc2nccn2c1)S(=O)(=O)Oc1ccc(N(CCCl)CCCl)cc1 (stereo not shown) [TH-1435, 3-(4-(N,N-bis-(2-Chloroethyl)amino)phenoxysulfonyl-(imidazopyidin-5-yl-methyl))methyl-2-nitrothiophene] | > 300 | 8.5 | 30 | 18 | 0.6 | >35
CNc1ccc(CC(c2ccsc2[N+](=O)[O-])S(=O)(=O)Oc2ccc(N(CCCl)CCCl)cc2)cn1 (stereo not shown) [TH-1442] | 230 | 3.5 | 116 | 93 | 0.8 | 66
O=[N+]([O-])c1sccc1C(Cc1ccc2c(c1)nnn2CCO)S(=O)(=O)Oc1ccc(N(CCCl)CCCl)cc1 (stereo not shown) [TH-1451, 3-(4-(N,N-bis-(2-Chloroethyl)amino)phenoxysulfonyl-(1-(2-hydroxyethyl)benzotriazol-5-yl-methyl))methyl-2-nitrothiophene] | 250 | 6 | 110 | 110 | 1 | 42
O=[N+]([O-])c1sccc1C(Cc1cn2ccccc2n1)S(=O)(=O)Oc1ccc(N(CCCl)CCCl)cc1 (stereo not shown) [TH-1456, 3-(4-(N,N-bis-(2-Chloroethyl)amino)phenoxysulfonyl-(imidazopyridin-2-yl-methyl))methyl-2-nitrothiophene] | > 300 | 5 | 100 | 30 | 0.3 | >60
O=[N+]([O-])c1sccc1C(Cc1ccc2nnn(CCO)c2c1)S(=O)(=O)Oc1ccc(N(CCCl)CCCl)cc1 (stereo not shown) [TH-1457, 3-(4-(N,N-bis-(2-Chloroethyl)amino)phenoxysulfonyl-(1-(2-hydroxyethyl)benzotriazol-6-yl-methyl))methyl-2-nitrothiophene] | 180 | 4 | 240 | 120 | 0.5 | 45
C[C@H](O)C(=O)Nc1ccc(CC(c2ccsc2[N+](=O)[O-])S(=O)(=O)Oc2ccc(N(CCCl)CCCl)cc2)cn1 (stereo partly shown) [TH-1465, 3-(4-(N,N-bis-(2-Chloroethyl)amino)phenoxysulfonyl-(2-(lactic acylamino)pyridine-5-yl-methyl))methyl-2-nitrothiophene] | 210 | 7 | 50 | 40 | 0.8 | 30
COCC(=O)N(C)c1ccc(CC(c2ccsc2[N+](=O)[O-])S(=O)(=O)Oc2ccc(N(CCCl)CCCl)cc2)cn1 (stereo not shown) [TH-1478, 3-(4-(N,N-bis-(2-Chloroethyl)amino)phenoxysulfonyl-(2-(N-methoxyacetyl-N-methylamino)pyridin-5-yl-methyl))methyl-2-nitrothiophene] | 220 | 20 | 300 | 120 | 0.4 | 11
